Measurements published in patent publication US20240228487A1, “FUSED HETEROCYCLIC COMPOUND AND APPLICATION THEREOF, PHARMACEUTICAL COMPOSITIONS CONTAINING SAME AND APPLICATION THEREOF” (ZHEJIANG UNIVERSITY, priority 2021, published 2024).

What was measured:
[1] = test system: dopaminergic neurons differentiated from iPSC derived from disseminated PD patients; test: mitochondrial fusion morphology (Mitotracker, Girk2 labeling) of iPSC differentiated dopaminergic neurons; type: cell-based, human; settings: II-23 0.6 μM, ACA 0.5 μM; Mitotracker staining, Girk2-positive neurons
Procedure: Using normal and disseminated PD patient-derived induced pluripotent stem cells (iPSC), performing drug interventions using the TRPM2 inhibitors ACA and II-23 after they were induced and differentiated into mature dopaminergic neurons, the drug treating method is as follows: • a. Calculating the materials for the experiment, and starting preparing when the dopaminergic neurons are differentiated to the 8th day. The petri dishes should be treated with 33 μg/mL PDL overnight and washed with sterilized water. After drying, 2 μg/mL of laminin was added and incubated overnight. Both PDL and laminin can be recycled for reuse. • b. […] Fluorescence confocal imaging was performed using a confocal dish inoculated with 2 mL/dish, and cell viability assays were performed using a 96-well plate inoculated with 100 μL/well. […]
Positive dopamine neurons were labeled with a dopaminergic neuron marker molecule Girk2 antibody susceptible for SNc, and cellular mitochondria were labeled with the mitochondrial dye mitotracker as in FIG. 15. […] Finally, performing the fluorescence imaging: removing the secondary antibody, and washing three times with 1×PBS, adding 50% Glycerol for fluorescence protection, and then imaging with a Zeiss LSM880 laser confocal microscope, as shown in FIG. 15.

[2] = test system: C57BL/6 mice, transient middle cerebral artery occlusion (tMCAO); test: mouse tMCAO cerebral stroke model (Embodiment 69); type: in vivo; settings: 3 mg/kg tail vein injection 3 h after reperfusion
Source text: After isoflurane inhalation gas anesthesia of 22-25 g male C57BL/6 mice, the fiber-optic probes of a laser Doppler flowmeter were fixed to the skull of the mice with glue for monitoring the cerebral blood flow of the middle cerebral artery (MCA) supplying cortex. The mice were fixed in the supine position, and the middle of the neck was dehaired and routinely sterilized with 75% alcohol. An approximately 1.5 cm incision was made in the middle of the neck, and the skin of the neck was incised, and the muscle and fascia were separated along the inner edge of the sternocleidomastoideole; the right carotid artery sheath was bluntly separated to expose the right common carotid artery (CCA), external carotid artery (ECA), and internal carotid artery (ICA); after the surgical area was exposed satisfactorily, the CCA and ICA were temporarily clipped with arterial clips, and a small incision was made at the proximal end of the ECA with microsurgical scissors, and a nylon monofilament suture was inserted from the small incision along the ECA, and gently pushed into the intracranial area in the direction of the ICA for about 11.5±0.5 mm, blocking the beginning of the middle cerebral artery. Only the animals whose blood flow values decreased to 20% of the basic value were selected according to the blood flow data monitored by the flowmeter. After 90 minutes of ischemia, the monofilament sutures were gently withdrawn out, the arterial stumps were tied tightly, the surgical wounds were inspected, the bleeding was thoroughly stopped, a small amount of penicillin powder was sprinkled locally to prevent infection, and the subcutaneous tissues and the skin were sutured layer by layer, thus completing the ischemia reperfusion injury model. A heating plate was used to maintain the body temperature of the animals during surgery. After completion of the surgery, the sutured mice were placed in a heat preservation and humidification box until the mice recovered activities. Animals in the sham-operated group were subjected to the same surgical procedure but without middle artery occlusion.
Clean-grade male C57BL/6 mice were randomly divided into five groups, namely, the sham-operated group, the group of the positive control drug Edaravone(3 mg/kg), and the 3 mg/kg dose group of compounds II-1, II-23 and III-1.
The mice were subjected to tail vein injections of Edaravone, II-1, II-23, and III-1 respectively 3 h after modeling and reperfusion; the sham-operated group was injected with an equal volume of saline, and II-1, II-23, III-1, and Edaravone were dissolved in 0.9% saline solution. Neurological function scores and TTC staining of mice were performed 24 h after ischemia-reperfusion, and the results are shown in FIGS. 6, 7 and 8.
The mice were decapitated 24 h after ischemia-reperfusion, the coronal planes of the brains were cut into brain slices of about 2 mm thickness uniformly. The brain slices were placed in 0.25% 2,3,5-triphenyltetrazolium chloride (TTC) solution, incubated at 37° C. Celsius for 30 minutes away from light, stained, and fixed in 4% paraformaldehyde neutral buffer (pH 7.4) overnight. The processed brain slices were photographed using a macro camera, and Image J image analysis software was used to calculate and count the cerebral infarct volume, and the measured results are shown in FIG. 7. The formula for calculating the percentage of infarct volume was (sum of the left uninfarcted area −sum of the right uninfarcted area)/sum of the left uninfarcted area×100%.
According to the five-level, four-point standard of score, the mortality and neuromotor dysfunction scores of each group of mice were performed, and the results are shown in FIG. 8. […]

SMILES: CCN(CC)C(=O)c1cc(C(=O)c2ccccc2)n2cccc2c1 [II-23, 5-Benzoyl-N, N-diethylindolizine-7-formamide]
- excessive mitochondrial fusion in dopaminergic neurons derived from PD patients [1]: reversed
- area of cerebral infarction caused by tMCAO ([2]; TTC staining 24 h after ischemia-reperfusion): significantly reduced
- neuromotor dysfunction scores caused by tMCAO ([2]; scored 24 h after ischemia-reperfusion): significantly reduced
